Source: patent publication US5567725A, “Substituted cyclohexanol esters, their use for treating diseases, and pharmaceutical preparations” (Hoechst Aktiengesellschaft, priority 1994, dated 1996)

Molecular target: T1, glucose-6-phosphatase system (Rattus norvegicus, UniProt F7EWB7)
T1 construct: from tissue; host or cells: liver microsomes, male Wistar rats
T1 sequence (F7EWB7 1-429): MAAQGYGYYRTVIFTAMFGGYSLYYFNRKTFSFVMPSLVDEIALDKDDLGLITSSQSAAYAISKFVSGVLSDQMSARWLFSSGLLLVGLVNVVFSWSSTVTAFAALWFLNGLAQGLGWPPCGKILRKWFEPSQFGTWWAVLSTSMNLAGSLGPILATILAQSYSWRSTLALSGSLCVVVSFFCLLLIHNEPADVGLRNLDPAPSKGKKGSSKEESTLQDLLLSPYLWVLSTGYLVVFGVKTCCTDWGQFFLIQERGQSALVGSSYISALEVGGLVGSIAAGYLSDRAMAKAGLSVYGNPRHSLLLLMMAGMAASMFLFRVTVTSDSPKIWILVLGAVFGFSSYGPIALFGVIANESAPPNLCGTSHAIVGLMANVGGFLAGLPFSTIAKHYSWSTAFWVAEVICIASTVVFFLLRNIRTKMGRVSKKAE
Test: enzyme test using liver microsomes: phosphate liberated from glucose-6-phosphate
Type: biochemical, male Wistar rats
Settings: rat liver microsome fraction; glucose-6-phosphate 1 mmol/l; HEPES pH 7.0; room temperature, 20 minutes
Experimental: The effect of the novel compounds on the glucose-6-phosphatase system was investigated in an enzyme test using liver microsomes.
0.1 ml of test mixture contained glucose-6-phosphate (1mmol/l), the test substance, 0.1 mg of microsome fraction and 100 mmol/l HEPES buffer (4-(2-hydroxyethyl)piperazine-1-ethanesulfonic acid), pH 7.0. The reaction was started by adding the enzyme. After proceeding at room temperature for 20 minutes, the reaction was stopped by adding 0.2 ml of phosphate reagent. The sample was incubated at 37° C. for 30 minutes and the absorption (A) of the blue color was then measured at 570 nm.

| IC50 [µM] | SMILES |
| --- | --- |
| 0.02 | CS(=O)(=O)NC(=O)C1(OCC2CC2c2ccc(Cl)cc2)CC(O)C(O)C(OC(=O)C=C(c2ccccc2)n2cnc3ccccc32)C1 (stereo not shown) [Compound 4] |
| 0.3 | O=C(/C=C(/c1ccccc1)n1cnc2ccccc21)O[C@@H]1C[C@](OC[C@@H]2C[C@@H]2c2ccc(Cl)cc2)(C(=O)NS(=O)(=O)c2ccc3ccccc3c2)C[C@@H](O)[C@H]1O [Compound 9] |
| 0.8 | O=C(/C=C(/c1ccccc1)n1cnc2ccccc21)O[C@@H]1C[C@](OC[C@@H]2C[C@@H]2c2ccc(Cl)cc2)(c2nnn[nH]2)C[C@@H](O)[C@H]1O [Compound 19] |

System: glucose-6-phosphatase
Test: not given
Settings: literature statement; cited from earlier work

| SMILES | inhibition of glucose-6-phosphatase (in words) |
| --- | --- |
| S=C=Nc1ccccc1C=Cc1ccccc1N=C=S [2,2'-diisothiocyanatostilbene] | non-specific inhibitors |
| CC(=O)Oc1ccccc1C=Cc1ccccc1N=C=S [2-isothiocyanato-2'-acetoxystilbene] | non-specific inhibitors |
| O=C(O)c1cc(SSc2ccc([N+](=O)[O-])c(C(=O)O)c2)ccc1[N+](=O)[O-] [5,5'-dithiobis-2-nitrobenzoic acid] | non-specific inhibitors |
| O=C(CCc1ccc(O)cc1)c1c(O)cc(O)cc1O[C@@H]1O[C@H](CO)[C@@H](O)[C@H](O)[C@H]1O [phlorrhizin] | non-specific inhibitors |
